Source: PubChem BioAssay AID330 (DTP/NCI, 2004)
Where “and” joins values, the source holds several entries; their conditions need not be identical. Equal values may be shown once. Inconclusive results and toxic doses are left out.

Tested on: P388 leukemia ip, CD2F1 mice, survival T/C
Test: NCI In Vivo Anticancer Drug Screen. Data for tumor model P388 Leukemia (intraperitoneal) in CD2F1 (CDF1) mice
Conditions: endpoint: median survival time, higher = longer survival
Method: The antitumor activity of compounds was measured in mice bearing transplantable tumors. Survival or tumor size were measured and the results are expressed as the measurement made in the treated group (T) divided by the measurement made in the vehicle treated control group (C). The tumor model used in this assay is P388 Leukemia (intraperitoneal) in CD2F1 (CDF1) mice

[1] = dose: 0.06 mg/kg/injection, schedule: Q01DX009 (ip), vehicle: saline
[2] = dose: 0.25 mg/kg/injection, schedule: Q01DX009 (ip), vehicle: saline
[3] = dose: 100.0 mg/kg/injection, schedule: Q04DX003 (ip), vehicle: saline
[4] = dose: 200.0 mg/kg/injection, schedule: Q04DX003 (ip), vehicle: saline
[5] = dose: 50.0 mg/kg/injection, schedule: Q01DX009 (ip), vehicle: Klucel (hydroxypropylcellulose) (HPC)
[6] = dose: 100.0 mg/kg/injection, schedule: Q01DX009 (ip), vehicle: Klucel (hydroxypropylcellulose) (HPC)
[7] = dose: 200.0 mg/kg/injection, schedule: Q01DX009 (ip), vehicle: Klucel (hydroxypropylcellulose) (HPC)
[8] = dose: 50.0 mg/kg/injection, schedule: Q01DX005 (ip), vehicle: saline
[9] = dose: 100.0 mg/kg/injection, schedule: Q01DX005 (ip), vehicle: saline
[10] = dose: 200.0 mg/kg/injection, schedule: Q01DX005 (ip), vehicle: saline
[11] = dose: 12.5 mg/kg/injection, schedule: Q01DX009 (ip), vehicle: Klucel (hydroxypropylcellulose) (HPC)
[12] = dose: 25.0 mg/kg/injection, schedule: Q01DX009 (ip), vehicle: Klucel (hydroxypropylcellulose) (HPC)

CCOC(=O)Nc1cccc([N+](=O)[O-])c1
T/C (dose: 100.0 mg/kg/injection, schedule: Q04DX003 (ip), vehicle: other): 95 % of control
T/C (dose: 200.0 mg/kg/injection, schedule: Q04DX003 (ip), vehicle: other): 95 % of control
T/C (dose: 400.0 mg/kg/injection, schedule: Q04DX003 (ip), vehicle: other): 100 % of control

CC(=O)c1c(C)nc2c(-c3ccccc3)[nH]c(C)c2c1C
T/C (dose: 100.0 mg/kg/injection, schedule: Q04DX003 (ip), vehicle: Klucel (hydroxypropylcellulose) (HPC)): 100 % of control
T/C (dose: 200.0 mg/kg/injection, schedule: Q04DX003 (ip), vehicle: Klucel (hydroxypropylcellulose) (HPC)): 102 % of control
T/C (dose: 400.0 mg/kg/injection, schedule: Q04DX003 (ip), vehicle: Klucel (hydroxypropylcellulose) (HPC)): 111 % of control

CC(=O)OC1C(O)C(C)OC(OC(=O)C2CCC3C(C2)OC2(CC(OC(=O)/C=C/c4ccccc4)C(C)CO2)C32CO2)C1OC1OC(C)C(O)C(O)C1O (centres undefined)
T/C (dose: 2.0 mg/kg/injection, schedule: Q01DX005 (ip), vehicle: saline + alcohol): 100 % of control and 118 % of control
T/C (dose: 4.0 mg/kg/injection, schedule: Q01DX005 (ip), vehicle: saline + alcohol): 119 % of control
T/C (dose: 16.0 mg/kg/injection, schedule: Q01DX005 (ip), vehicle: saline + alcohol): 151 % of control
T/C (dose: 32.0 mg/kg/injection, schedule: Q01DX005 (ip), vehicle: saline + alcohol): 154 % of control
T/C (dose: 64.0 mg/kg/injection, schedule: Q01DX005 (ip), vehicle: saline + alcohol): 163 % of control

C=C(CN(C)C)C(=O)c1cc(C)ccc1C
T/C (dose: 0.93 mg/kg/injection, schedule: Q01DX005 (ip), vehicle: saline): 100 % of control
T/C (dose: 1.87 mg/kg/injection, schedule: Q01DX005 (ip), vehicle: saline): 100 % of control
T/C (dose: 3.75 mg/kg/injection, schedule: Q01DX005 (ip), vehicle: saline): 98 % of control

CCN1/C(=C/C=C/C=C/c2sc3ccccc3[n+]2CC)Sc2ccccc21
T/C (dose: 0.05 mg/kg/injection, schedule: Q01DX009 (ip), vehicle: saline): 123 % of control
T/C [1]: 124 % of control
T/C (dose: 0.08 mg/kg/injection, schedule: Q01DX009 (ip), vehicle: saline): 107 % of control
T/C (dose: 0.12 mg/kg/injection, schedule: Q01DX009 (ip), vehicle: saline): 117 % of control and 122 % of control
T/C [2]: 123 % of control
T/C (dose: 0.28 mg/kg/injection, schedule: Q01DX009 (ip), vehicle: saline): 123 % of control

CN1CCc2cc(O)c(O)cc2C1
T/C [3]: 98 % of control
T/C [4]: 103 % of control

Cc1cc(OC(=O)N2CCCCC2)c(C(C)C)cc1[N+](C)(C)C
T/C (dose: 0.02 mg/kg/injection, schedule: Q01DX009 (ip), vehicle: saline): 100 % of control
T/C (dose: 0.03 mg/kg/injection, schedule: Q01DX009 (ip), vehicle: saline): 100 % of control
T/C [1]: 90 % of control

O=C1C2=C(C(=O)c3ncccc31)C1C=CC2CC1 (centres undefined)
T/C (dose: 25.0 mg/kg/injection, schedule: Q01DX005 (ip), vehicle: DMSO): 100 % of control
T/C (dose: 50.0 mg/kg/injection, schedule: Q01DX005 (ip), vehicle: DMSO): 100 % of control
T/C (dose: 50.0 mg/kg/injection, schedule: Q01DX005 (ip), vehicle: Klucel + Tween-80): 102 % of control
T/C (dose: 100.0 mg/kg/injection, schedule: Q01DX005 (ip), vehicle: DMSO): 104 % of control
T/C (dose: 100.0 mg/kg/injection, schedule: Q01DX005 (ip), vehicle: Klucel + Tween-80): 96 % of control

N#CC(=Nc1ccccc1)c1cccc(Br)c1
T/C [5]: 109 % of control
T/C [6]: 109 % of control
T/C [7]: 117 % of control

CN1CCN(CCCNN)CC1
T/C [8]: 93 % of control
T/C [9]: 101 % of control
T/C [10]: 101 % of control

Cc1ccc(C(C)(C)C[P+](C)(c2ccccc2)c2ccccc2)cc1
T/C [11]: 105 % of control
T/C [12]: 103 % of control

CC(C)CC(N)CO (centres undefined)
T/C (dose: 50.0 mg/kg/injection, schedule: Q01DX005 (ip), vehicle: suspension in saline): 105 % of control
T/C (dose: 100.0 mg/kg/injection, schedule: Q01DX005 (ip), vehicle: suspension in saline): 106 % of control
T/C (dose: 200.0 mg/kg/injection, schedule: Q01DX005 (ip), vehicle: suspension in saline): 106 % of control

CC(C)CC(NC(=O)C(C)N)C(N)=O (centres undefined)
T/C [8]: 99 % of control
T/C [9]: 103 % of control
T/C [10]: 96 % of control

NC(CCC(=O)O)C(=O)Nc1ccc(N(CCCl)CCCl)cc1 (centres undefined)
T/C (dose: 1.56 mg/kg/injection, schedule: Q01DX009 (ip), vehicle: saline with Tween-80): 173 % of control
T/C (dose: 3.12 mg/kg/injection, schedule: Q01DX009 (ip), vehicle: saline with Tween-80): 175 % of control
T/C (dose: 6.25 mg/kg/injection, schedule: Q01DX009 (ip), vehicle: saline with Tween-80): 230 % of control
T/C (dose: 12.5 mg/kg/injection, schedule: Q01DX009 (ip), vehicle: saline with Tween-80): 92 % of control

C/C(=N/N(C)C)c1ccncc1
T/C [5]: 104 % of control
T/C [6]: 107 % of control
T/C [7]: 113 % of control

COc1cc(C(C)c2cc3c(cc2OCCO)OCO3)cc(OC)c1OC (centres undefined)
T/C (dose: 25.0 mg/kg/injection, schedule: Q01DX005 (ip), vehicle: saline with Tween-80): 92 % of control and 94 % of control
T/C (dose: 400.0 mg/kg/injection, schedule: Q01DX005 (ip), vehicle: saline with Tween-80): 161 % of control and 180 % of control

c1ccc2sc(NCCSSCCNc3nc4ccccc4s3)nc2c1
T/C (dose: 25.0 mg/kg/injection, schedule: Q01DX009 (ip), vehicle: other): 100 % of control
T/C (dose: 50.0 mg/kg/injection, schedule: Q01DX009 (ip), vehicle: other): 86 % of control and 92 % of control
T/C (dose: 100.0 mg/kg/injection, schedule: Q01DX009 (ip), vehicle: other): 90 % of control
T/C (dose: 200.0 mg/kg/injection, schedule: Q01DX009 (ip), vehicle: other): 90 % of control and 93 % of control

CCOc1ccc(OCC)c(C(O)C(C)NC(C)C)c1 (centres undefined)
T/C (dose: 6.25 mg/kg/injection, schedule: Q01DX009 (ip), vehicle: Klucel (hydroxypropylcellulose) (HPC)): 101 % of control
T/C [11]: 100 % of control
T/C [12]: 99 % of control and 115 % of control

CC1SC(C)C1=O (centres undefined)
T/C (dose: 60.0 mg/kg/injection, schedule: Q01DX005 (ip), vehicle: saline): 109 % of control
T/C (dose: 120.0 mg/kg/injection, schedule: Q01DX005 (ip), vehicle: saline): 107 % of control
T/C (dose: 240.0 mg/kg/injection, schedule: Q01DX005 (ip), vehicle: saline): 100 % of control

C=CCC(C(=O)OC)c1ccc(F)cc1 (centres undefined)
T/C [1]: 111 % of control
T/C (dose: 0.13 mg/kg/injection, schedule: Q01DX009 (ip), vehicle: saline): 102 % of control
T/C [2]: 101 % of control
T/C (dose: 1.0 mg/kg/injection, schedule: Q01DX009 (ip), vehicle: saline): 88 % of control

CCCCOC(=O)C1(N)CCCC1
T/C [3]: 100 % of control
T/C [4]: 109 % of control

CCN(CCO)CC(O)Cn1cnc2c(N)ncnc21 (centres undefined)
T/C (dose: 60.0 mg/kg/injection, schedule: Q01DX005 (ip), vehicle: Klucel (hydroxypropylcellulose) (HPC)): 95 % of control
T/C (dose: 120.0 mg/kg/injection, schedule: Q01DX005 (ip), vehicle: Klucel (hydroxypropylcellulose) (HPC)): 94 % of control
T/C (dose: 240.0 mg/kg/injection, schedule: Q01DX005 (ip), vehicle: Klucel (hydroxypropylcellulose) (HPC)): 97 % of control

CN(C)C1C(O)C2Oc3c(cc(O)c4c3C(=O)c3cc5c(c(O)c3C4=O)C(OCCBr)CC(C)(O)C5)C(C)(O2)C1O (centres undefined)
T/C (dose: 2.0 mg/kg/injection, schedule: Q01DX009 (ip), vehicle: other): 150 % of control
T/C (dose: 4.0 mg/kg/injection, schedule: Q01DX009 (ip), vehicle: other): 154 % of control
T/C (dose: 8.0 mg/kg/injection, schedule: Q01DX009 (ip), vehicle: other): 157 % of control
T/C (dose: 16.0 mg/kg/injection, schedule: Q01DX009 (ip), vehicle: other): 159 % of control

COc1ccc(NCc2ccc(C)cc2)cc1
T/C (dose: 100.0 mg/kg/injection, schedule: Q01DX001 (ip), vehicle: saline with Tween-80): 100 % of control
T/C (dose: 200.0 mg/kg/injection, schedule: Q01DX001 (ip), vehicle: saline with Tween-80): 108 % of control
T/C (dose: 400.0 mg/kg/injection, schedule: Q01DX001 (ip), vehicle: saline with Tween-80): 107 % of control
